Our source for the EC50 values is patent US20260193250A1, “TOLL-LIKE RECEPTOR 7 AGONISTS AS IMMUNE-STIMULATORS TO ELICIT THE INNATE ANTITUMOR IMMUNITY” (Merck Patent GmbH, priority 2022, published 2026).

SMILES strings stand for the structures.

One assay deals with T1, hTLR8 (Homo sapiens, UniProt Q9NR97).
T1 construct: host or cells: HEK-Blue hTLR8 (HEK293-derived SEAP reporter cells)
T1 sequence (Q9NR97 27-1041): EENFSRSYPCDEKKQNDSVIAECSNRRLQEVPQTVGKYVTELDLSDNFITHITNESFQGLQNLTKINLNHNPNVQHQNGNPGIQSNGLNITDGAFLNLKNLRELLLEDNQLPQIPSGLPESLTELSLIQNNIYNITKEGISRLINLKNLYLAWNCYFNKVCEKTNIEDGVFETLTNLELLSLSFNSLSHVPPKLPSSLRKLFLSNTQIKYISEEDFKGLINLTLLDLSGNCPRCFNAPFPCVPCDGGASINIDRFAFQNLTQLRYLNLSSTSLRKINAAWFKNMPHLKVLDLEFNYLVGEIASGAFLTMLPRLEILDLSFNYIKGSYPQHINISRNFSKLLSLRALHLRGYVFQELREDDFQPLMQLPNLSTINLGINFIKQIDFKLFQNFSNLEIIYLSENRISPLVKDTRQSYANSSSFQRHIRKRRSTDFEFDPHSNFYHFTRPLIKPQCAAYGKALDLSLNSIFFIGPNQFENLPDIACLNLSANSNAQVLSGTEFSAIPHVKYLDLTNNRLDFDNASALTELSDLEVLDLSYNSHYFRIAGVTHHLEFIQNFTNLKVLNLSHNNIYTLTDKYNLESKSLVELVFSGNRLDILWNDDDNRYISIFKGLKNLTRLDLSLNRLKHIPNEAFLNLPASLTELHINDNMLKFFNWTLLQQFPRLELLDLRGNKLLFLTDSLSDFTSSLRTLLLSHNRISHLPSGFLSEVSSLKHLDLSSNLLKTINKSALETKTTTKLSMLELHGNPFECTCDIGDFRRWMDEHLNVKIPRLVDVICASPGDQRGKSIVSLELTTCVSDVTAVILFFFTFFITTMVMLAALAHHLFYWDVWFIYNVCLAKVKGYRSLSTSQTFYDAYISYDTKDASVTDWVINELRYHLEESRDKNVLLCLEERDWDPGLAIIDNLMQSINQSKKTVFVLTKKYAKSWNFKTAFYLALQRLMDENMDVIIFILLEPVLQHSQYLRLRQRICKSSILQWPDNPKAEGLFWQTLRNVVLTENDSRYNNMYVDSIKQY
Nature of the assay: TLR8 reporter assay in HEK-Blue cells (SEAP, Quanti-Blue). Format: cell-based. The conditions noted are these: 24 hours incubation, SEAP absorbance at 620 nm. As for the experimental part:
HEK-Blue™ TLR7 and TLR8 cell lines were obtained from InvivoGen (San Diego, CA, USA). HEK-Blue cells were cultured in DMEM medium hi glucose (Gibco-10569010) supplemented with 10% HI-FBS (Aus origin) (Gibco-10100-147), 1% penicillin/streptomycin (Gibco-15140-122-100 ml) as per manufacturer's recommendation. In addition, specific antibiotic mixtures were added to the culture. 100 μg/ml Zeocin (11006-33-0), 10 μg/ml Blasticidin (ant-bl-05), 50 μg/ml Normocin (ANT-NR-1-500 MG) for HEK-Blue™ hTLR7 and 100 μg/ml Zeocin, 30 μg/ml Blasticidin, 50 μg/ml Normocin for HEK-Blue™ hTLR8 cells (all from InvivoGen).
All the compounds were prepared in 100% DMSO (Sigma-D2650). The compounds were serially diluted in 100% DMSO (3 fold) up to 10 point dose response curve starting with 30 μM; final concentration of DMSO in the plate was 0.3%. Resiquimod and TL8-506 (InvivoGen-tlrl-t18506) were used as controls. 0.3% DMSO and 10 μM Resiquimod were used as min and max respectively, and % activation was calculated using following formula:
% Activation: {100−(max absorbance−absorbance)/(max absorbance−min absorbance)}×100.
For stimulation with TLR7/8 agonists, cells were resuspended in complete media and 40 μl of cell suspension (10,000 cells/well) was seeded on day 1 in 384 well assay plate (Thermo Scientific™ Nunc-164688) having pre-dispensed compounds with Echo Liquid handler. The plate was spun at 100 g for 1 min to settle down the cells and incubated at 37° C. with 5% CO2 for 24 hours. For measuring production of SEAP after 24 hrs of incubation, 10 μl of Quanti-Blue™ solution (InvivoGen rep-qbs2) prepared according to manufacturer's instructions was added in dark to the assay plate and incubated at 37° C. with 5% CO2 for 30 min. Post incubation, the absorbance was measured at 620 nm in Tecan spark (Spark control Magellan). EC50 were determined using Graph Pad Prism Statistical software (Version 7.05), with individual data points represent the absorbance values of duplicates.
(In general: A reporter such as luciferase makes a cellular process visible.)

Assay [1] concerns Peripheral blood mononuclear cells (PBMC). Nature of the assay: TNFα secretion from PBMCs. Format: cell-based. The following applies: human PBMCs, 18 hours incubation, MILLIPLEX bead panel. The method, then: Peripheral blood mononuclear cells (PBMC) were isolated from healthy human volunteers and banked in liquid nitrogen. Vial of frozen PBMC was thawed in 37° C. water bath for no more than 2 minutes. The contents of the tube were aseptically transferred to pre-warmed complete media containing RPMI basal media (Gibco-21875034) supplemented with 10% HI-FBS (Aus origin) (Gibco-10100-147) and 1% penicillin/streptomycin (Gibco-15140-122-100 ml) followed by centrifugation. Cells were resuspended in complete media (3 ml) and counted using haemocytometer.
All selected compounds (Five benchmark and 15 example molecules) were prepared in 100% DMSO (Sigma-D2650) (10 mM stock). The compounds were serially diluted in 100% DMSO (4 fold) up to 8 point DRC in U-bottom 96 well plate (Cellstar-650180). 3 μl of this serially diluted DRC was mixed with 97 μl of completed media (1:33.33) as intermediate dilution (300 μM) 3% DMSO. 11 μl of compounds from intermediate dilution was added to the PBMC plate (1:10) such that final concentration of DMSO in the culture plate is 0.3% and starting concentration of the compounds is 30 μM. Resiquimod (30 μM) and DMSO (0.3%) were used as positive and negative controls respectively.
The plate was incubated at 37° C. with 5% CO2 for 18 hours. Post incubation, the plate was spun at 2000 rpm for 5 min and supernatant was gently aspired and collected in protein low binding V-bottom 96 well plates (Thermo Fisher-249944). The supernatant plates were sealed, labelled appropriately and stored at −80° C. till cytokine analysis (<1 month).
MILLIPLEX MAP Human Cytokine/Chemokine Magnetic Bead Panel kit (HCYTOMAG-60K) was used for measuring TNF alpha as per the kit's recommendation.
EC50 were determined using Graph Pad Prism Statistical software (Version 7.05), with individual data points represent the absorbance values of duplicates.

As usually defined, the EC50 is the concentration that produces a half-maximal response. Lower therefore signals greater potency. As for `CCOCc1nc2c(N)nc3ccccc3c2n1CC(C)(C)OCCCN1CCN(C)CC1` [Example 2], the 50% effective concentration (EC50) on hTLR8 fell in the range of 1000 to 10000 nM; in assay [1], 100 to 1000 nM.

Consider `CCOCc1nc2c(N)nc3ccccc3c2n1CC(C)(C)OCCCCN1CCN(C)CC1` [Example 3], for which the EC50 on hTLR8 was 1000 to 10000 nM; in assay [1], under 100 nM.

Take `CCOCc1nc2c(N)nc3ccccc3c2n1CC(C)(C)OCCCCCN1CCN(C)CC1` [Example 4]: the 50% effective concentration (EC50) on hTLR8 was 100 to 1000 nM; in assay [1], under 100 nM.

Take `CCOCc1nc2c(N)nc3ccccc3c2n1CC(C)(C)OCCCCN1CCOCC1` [Example 7]: the EC50 (at hTLR8; in assay [1]) was 100 to 1000 nM throughout.

As to `CCOCc1nc2c(N)nc3ccccc3c2n1CC(C)(C)OCCCCN1CCCCC1` [Example 8], the concentration giving a half-maximal response (EC50) (on hTLR8; in assay [1]) was 1000 to 10000 nM in each case.

In the case of `CCOCc1nc2c(N)nc3ccccc3c2n1CC(C)(C)OCCCCN1CCCC1` [Example 9], the EC50 at hTLR8 was 100 to 1000 nM; in assay [1], over 10000 nM.

In the case of `CCOCc1nc2c(N)nc3ccccc3c2n1CC(C)(C)OCCCCN1CCNCC1` [Example 10], the concentration for a half-maximal effect (EC50) is 1000 to 10000 nM at hTLR8 and 100 to 1000 nM in assay [1].

Turning to `CCOCc1nc2c(N)nc3ccccc3c2n1CC(C)(C)OCCCCN1CCN(CCN)CC1` [Example 11], the EC50 (at hTLR8; in assay [1]) was 1000 to 10000 nM throughout.

With `CCOCc1nc2c(N)nc3ccccc3c2n1CC(C)(C)OCCCCn1cc(CO)nn1` [Example 13], the concentration for a half-maximal effect (EC50) was over 10000 nM on hTLR8 and 100 to 1000 nM in assay [1].

`CCOCc1nc2c(N)nc3ccccc3c2n1CC(C)(C)OCCCCn1cc(CN)nn1` [Example 14]: the concentration giving a half-maximal response (EC50) at hTLR8 lay within 1000 to 10000 nM; in assay [1], 100 to 1000 nM.

For `CCNCc1nc2c(N)nc3ccccc3c2n1CC(C)(C)OCCCCN1CCN(C)CC1` [Example 18], the concentration for a half-maximal effect (EC50) is over 10000 nM on hTLR8 and 1000 to 10000 nM in assay [1].

Turning to `CCOCc1nc2c(N)nc3ccccc3c2n1CC(C)(C)OC(=O)CN` [Example 19], the EC50 was 10 to 100 nM at hTLR8 and under 100 nM in assay [1].

Consider `CCOCc1nc2c(N)nc3ccccc3c2n1CC(C)(C)OCCCCN1CCN(CC(C)(C)SC)CC1` [Example 27], for which the EC50 (on hTLR8; in assay [1]) was 1000 to 10000 nM throughout.
